Source: patent US12570662B2, “Substituted pyrrolo[1,2-b]pyridazines as bifunctional degraders of interleukin-1 receptor-associated kinases” (Nurix Therapeutics, Inc., priority 2021, dated 2026)
Like-named read-outs stand apart in the source and are kept apart here.

Target: T1, IRAK4 (Homo sapiens, UniProt Q9NWZ3)
T1 construct: C-terminal HiBiT-tagged Jurkat cells (polyclonal cell line or clone 8D5); endogenous in cells; host or cells: Jurkat cells (polyclonal cell line or clone 8D5), HiBiT-tagged
T1 sequence (Q9NWZ3 1-460): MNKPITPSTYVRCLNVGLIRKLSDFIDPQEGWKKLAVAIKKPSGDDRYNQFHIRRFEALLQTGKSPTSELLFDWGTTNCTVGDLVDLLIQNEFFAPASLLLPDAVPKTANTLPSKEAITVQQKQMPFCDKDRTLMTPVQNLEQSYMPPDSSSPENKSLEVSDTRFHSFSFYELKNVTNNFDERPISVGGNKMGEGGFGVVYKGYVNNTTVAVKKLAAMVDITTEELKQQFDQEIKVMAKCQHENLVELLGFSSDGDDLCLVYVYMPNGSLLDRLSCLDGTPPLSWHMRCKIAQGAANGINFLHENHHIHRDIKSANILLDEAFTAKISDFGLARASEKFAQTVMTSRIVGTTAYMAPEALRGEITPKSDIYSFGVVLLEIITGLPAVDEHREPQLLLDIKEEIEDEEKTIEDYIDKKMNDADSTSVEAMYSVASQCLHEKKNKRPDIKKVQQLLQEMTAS
Experiment: IRAK4 Degradation HiBit Assay
Format: cell-based
Details: C-terminal HiBiT-tagged Jurkat cells, 4 hrs incubation; for DC50: % IRAK4 remaining, four-parameter fit (IC50 used as DC50); for Dmax: from fit of % IRAK4 remaining
Method in brief: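 Degradation was quantified by luminescence after adding lytic detection reagent containing LgBiT to HiBiT-tagged Jurkat cells (polyclonal or clone 8D5). Cells were treated 4 h at 32 °C across 11 concentrations from 10 μM to 0.1 nM final. Four-parameter curve fitting of % IRAK4 remaining versus DMSO gave DC50 and Dmax.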

Structure (SMILES)	DC50	Dmax (read-out: Dmax)	Dmax
N#Cc1cnn2c(-c3cc(NC4CCOCC4)c(-c4nnc(N5CC6(CCN(CC7CCN(c8ccc(C9CCC(=O)NC9=O)cn8)CC7)CC6)C5)s4)cn3)ccc2c1 (racemic) [Example 88, rac-7-[5-(5-{7-[(1-{5-[(3R)-2,6-dioxopiperidin-3-yl]pyridin-2-yl}piperidin-4-yl)methyl]-2,7-diazaspiro[3.5]nonan-2-yl}-1,3,4-thiadiazol-2-yl)-4-[(oxan-4-yl)amino]pyridin-2-yl]pyrrolo[1,2-b]pyridazine-3-carbonitrile]	11 nM	115%	
CCNc1cc(-c2ccc3cc(C#N)cnn23)ncc1-c1nnc(N2CC3CCC(C2)N3CC2CCN(c3ccc([C@H]4CCC(=O)NC4=O)cn3)CC2)s1 (racemic) [Example 89, rac-7-[5-(5-{8-[(1-{5-[(3R)-2,6-dioxopiperidin-3-yl]pyridin-2-yl}piperidin-4-yl)methyl]-3,8-diazabicyclo[3.2.1]octan-3-yl}-1,3,4-thiadiazol-2-yl)-4-(ethylamino)pyridin-2-yl]pyrrolo[1,2-b]pyridazine-3-carbonitrile]	24 nM	112%	
N#Cc1cnn2c(-c3cc(NC4CCOCC4)c(-c4nnc(C56CCC(CN7CCc8cc(C9CCC(=O)NC9=O)ccc8C7)(CC5)CC6)s4)cn3)ccc2c1 (racemic) [Example 90, rac-7-(5-{5-[4-({6-[(3R)-2,6-dioxopiperidin-3-yl]-1,2,3,4-tetrahydroisoquinolin-2-yl}methyl)bicyclo[2.2.2]octan-1-yl]-1,3,4-thiadiazol-2-yl}-4-[(oxan-4-yl)amino]pyridin-2-yl)pyrrolo[1,2-b]pyridazine-3-carbonitrile]	64 nM	25%	
N#Cc1cnn2c(-c3cc(NC4CCOCC4)c(-c4nnc(N5CCN(CC6CCN(c7ccc(N8CCC(=O)NC8=O)cc7)C6)CC5)s4)cn3)ccc2c1 (racemic) [Example 91, rac-7-{5-[5-(4-{[(3R)-1-[4-(2,4-dioxo-1,3-diazinan-1-yl)phenyl]pyrrolidin-3-yl]methyl}piperazin-1-yl)-1,3,4-thiadiazol-2-yl]-4-[(oxan-4-yl)amino]pyridin-2-yl}pyrrolo[1,2-b]pyridazine-3-carbonitrile]	97 nM	32%	
N#Cc1cnn2c(-c3cc(N[C@H]4CCOC4)c(-c4nnc(N5CCN(CC6CCN(c7ccc(C8CCC(=O)NC8=O)cn7)CC6)CC5)s4)cn3)ccc2c1 (mixture of isomers) [Example 92, 7-[5-(5-{4-[(1-{5-[(3RS)-2,6-dioxopiperidin-3-yl]pyridin-2-yl}piperidin-4-yl)methyl]piperazin-1-yl}-1,3,4-thiadiazol-2-yl)-4-{[(3S)-oxolan-3-yl]amino}pyridin-2-yl]pyrrolo[1,2-b]pyridazine-3-carbonitrile]	24 nM	114%	
N#Cc1cnn2c(-c3cc(N[C@@H]4CCOC4)c(-c4nnc(N5CC6CCC(C5)N6CC5CCN(c6ccc(C7CCC(=O)NC7=O)cn6)CC5)s4)cn3)ccc2c1 (mixture of isomers) [Example 94, 7-[5-(5-{8-[(1-{5-[(3RS)-2,6-dioxopiperidin-3-yl]pyridin-2-yl}piperidin-4-yl)methyl]-3,8-diazabicyclo[3.2.1]octan-3-yl}-1,3,4-thiadiazol-2-yl)-4-{[(3R)-oxolan-3-yl]amino}pyridin-2-yl]pyrrolo[1,2-b]pyridazine-3-carbonitrile]	10 nM	114%	
N#Cc1cnn2c(-c3cc(NC4CC4)c(-c4nnc(N5CC6CCC(C5)N6CC5CCN(c6ccc([C@H]7CCC(=O)NC7=O)cn6)CC5)s4)cn3)ccc2c1 (racemic) [Example 95, rac-7-[4-(cyclopropylamino)-5-(5-{8-[(1-{5-[(3R)-2,6-dioxopiperidin-3-yl]pyridin-2-yl}piperidin-4-yl)methyl]-3,8-diazabicyclo[3.2.1]octan-3-yl}-1,3,4-thiadiazol-2-yl)pyridin-2-yl]pyrrolo[1,2-b]pyridazine-3-carbonitrile]	27 nM	108%	
N#Cc1cnn2c(-c3cc(NC4CCC4)c(-c4nnc(N5CC6CCC(C5)N6CC5CCN(c6ccc([C@H]7CCC(=O)NC7=O)cn6)CC5)s4)cn3)ccc2c1 (racemic) [Example 96, rac-7-[4-(cyclobutylamino)-5-(5-{8-[(1-{5-[(3R)-2,6-dioxopiperidin-3-yl]pyridin-2-yl}piperidin-4-yl)methyl]-3,8-diazabicyclo[3.2.1]octan-3-yl}-1,3,4-thiadiazol-2-yl)pyridin-2-yl]pyrrolo[1,2-b]pyridazine-3-carbonitrile]	83 nM	103%	
C[C@H](C#N)Nc1cc(-c2ccc3cc(C#N)cnn23)ncc1-c1nnc(N2CCN(CC3CCN(c4ccc(C5CCC(=O)NC5=O)cc4)CC3)CC2)s1 (mixture of isomers) [Example 97, 7-(4-{[(1R)-1-cyanoethyl]amino}-5-(5-{4-[(1-{4-[(3RS)-2,6-dioxopiperidin-3-yl]phenyl}piperidin-4-yl)methyl]piperazin-1-yl}-1,3,4-thiadiazol-2-yl)pyridin-2-yl)pyrrolo[1,2-b]pyridazine-3-carbonitrile]	18 nM	111%	
N#Cc1cnn2c(-c3cc(N[C@@H]4CCOC4)c(-c4nnc(N5CC6CCC(C5)N6CC5CCN(c6ccc(C7CCC(=O)NC7=O)cc6)CC5)s4)cn3)ccc2c1 (mixture of isomers) [Example 98, 7-[5-(5-{8-[(1-{4-[(3RS)-2,6-dioxopiperidin-3-yl]phenyl}piperidin-4-yl)methyl]-3,8-diazabicyclo[3.2.1]octan-3-yl}-1,3,4-thiadiazol-2-yl)-4-{[(3R)-oxolan-3-yl]amino}pyridin-2-yl]pyrrolo[1,2-b]pyridazine-3-carbonitrile]	16 nM	105%	
N#Cc1cnn2c(-c3cc(NC4CC4)c(-c4nnc(N5CC6CCC(C5)N6CC5CCN(c6ccc([C@H]7CCC(=O)NC7=O)cc6)CC5)s4)cn3)ccc2c1 (racemic) [Example 99, rac-7-[4-(cyclopropylamino)-5-(5-{8-[(1-{4-[(3R)-2,6-dioxopiperidin-3-yl]phenyl}piperidin-4-yl)methyl]-3,8-diazabicyclo[3.2.1]octan-3-yl}-1,3,4-thiadiazol-2-yl)pyridin-2-yl]pyrrolo[1,2-b]pyridazine-3-carbonitrile]	56 nM	73%	
N#Cc1cnn2c(-c3cc(NC4CCOCC4)c(-c4nnc(N5CCN(C[C@H]6[C@H]7CN(c8ccc(C9CCC(=O)NC9=O)cn8)C[C@@H]67)CC5)s4)cn3)ccc2c1 (mixture of isomers) [Example 100, 7-{5-[5-(4-{[(1RS&,5SR&,6RS&)-3-{5-[(3RS)-2,6-dioxopiperidin-3-yl]pyridin-2-yl}-3-azabicyclo[3.1.0]hexan-6-yl]methyl}piperazin-1-yl)-1,3,4-thiadiazol-2-yl]-4-[(oxan-4-yl)amino]pyridin-2-yl}pyrrolo[1,2-b]pyridazine-3-carbonitrile]	20 nM		95%
N#Cc1cnn2c(-c3cc(NC4CCOCC4)c(-c4nnc(N5CC6CCC(C5)N6CC5[C@H]6CN(c7ccc([C@H]8CCC(=O)NC8=O)cn7)C[C@@H]56)s4)cn3)ccc2c1 (mixture of isomers) [Example 101, 7-{5-[5-(8-{[(1RS&,5SR&,6RS&)-3-{5-[(3RS)-2,6-dioxopiperidin-3-yl]pyridin-2-yl}-3-azabicyclo[3.1.0]hexan-6-yl]methyl}-3,8-diazabicyclo[3.2.1]octan-3-yl)-1,3,4-thiadiazol-2-yl]-4-[(oxan-4-yl)amino]pyridin-2-yl}pyrrolo[1,2-b]pyridazine-3-carbonitrile]	7 nM		55%
CCNc1cc(-c2ccc3cc(C#N)cnn23)ncc1-c1nnc(N2CC3CCC(C2)N3CC2CCN(c3ccc([C@H]4CCC(=O)NC4=O)cc3)CC2)s1 (racemic) [Example 102, rac-7-[5-(5-{8-[(1-{4-[(3R)-2,6-dioxopiperidin-3-yl]phenyl}piperidin-4-yl)methyl]-3,8-diazabicyclo[3.2.1]octan-3-yl}-1,3,4-thiadiazol-2-yl)-4-(ethylamino)pyridin-2-yl]pyrrolo[1,2-b]pyridazine-3-carbonitrile]	42 nM	107%	
N#Cc1cnn2c(-c3cc(NC4(C#N)CC4)c(-c4nnc(N5CC6CCC(C5)N6CC5CCN(c6ccc([C@H]7CCC(=O)NC7=O)cn6)CC5)s4)cn3)ccc2c1 (racemic) [Example 103, rac-7-{4-[(1-cyanocyclopropyl)amino]-5-(5-{8-[(1-{5-[(3R)-2,6-dioxopiperidin-3-yl]pyridin-2-yl}piperidin-4-yl)methyl]-3,8-diazabicyclo[3.2.1]octan-3-yl}-1,3,4-thiadiazol-2-yl)pyridin-2-yl}pyrrolo[1,2-b]pyridazine-3-carbonitrile]	12 nM	106%	
N#CCNc1cc(-c2ccc3cc(C#N)cnn23)ncc1-c1nnc(N2CC3CCC(C2)N3CC2CCN(c3ccc([C@H]4CCC(=O)NC4=O)cn3)CC2)s1 (racemic) [Example 104, rac-7-{4-[(cyanomethyl)amino]-5-(5-{8-[(1-{5-[(3R)-2,6-dioxopiperidin-3-yl]pyridin-2-yl}piperidin-4-yl)methyl]-3,8-diazabicyclo[3.2.1]octan-3-yl}-1,3,4-thiadiazol-2-yl)pyridin-2-yl}pyrrolo[1,2-b]pyridazine-3-carbonitrile]	4 nM	115%	
